Laboratory results from patent publication US20240034731A1, “AZA-QUINAZOLINE COMPOUNDS AND METHODS OF USE” (Iambic Therapeutics, Inc., priority 2022, published 2024).

Assays:
CDK1/Cyclin B1 = CDK1/Cyclin B1 (Homo sapiens (Human), UniProt P06493); experiment: CDK1/Cyclin B1 ADP-Glo Kinase Assay; type: biochemical; conditions: ADP-Glo, 80 uM ATP; read-out: CDK1 Cyclin B1 IC50
Description: CDK1/Cyclin B1 ADP-Glo Kinase Assay
(§1) The purpose of CDK1/Cyclin B1 assay is to evaluate the inhibition (% inhibition and IC50 values) of small molecule inhibitors by using a Luminescent based ADP-Glo assay. CDK1/Cyclin B1 catalyzes the production of ADP from ATP. ADP-Glo assay monitors ADP producing biochemical reactions. ADP-Glo is performed in 2 steps upon completion of kinase reaction: a combined termination of kinase reaction and depletion of remaining ATP in the first step, and conversion of generated ADP to ATP and the newly produced ATP to light output using luciferase/luciferin reaction in the second step. The luminescent signal generated is proportional to the ADP concentration produced and is correlated with the kinase activity. CDK1/Cyclin B1 was purchased from Carna (Cat 04-102). […] The assay was initiated with the addition of ATP-containing substrate solution, following a 30-minute pre-incubation of enzyme and inhibitor at room temperature in the reaction mixture. The reaction was stopped after 90 minutes at room temperature by the addition of 10 uL of ADP-GLO Reagent. After a 90 minute incubation, 20 uL of Kinase Detection Reagent was added. Samples were incubated for 40 minutes, after which plate well luminescence was measured on a Envision microplate reader. The IC50 determinations were made from a plot of the fractional velocity as a function of inhibitor concentration fit to the 4 parameters IC50 equation.

CDK2/Cyclin E1 = CDK2/Cyclin E1 (Homo sapiens (Human), UniProt P24941); experiment: CDK2/Cyclin E1 Full length ADP-Glo Kinase Assay; type: biochemical; conditions: 20 uM ATP, read-out: CDK2/ CyclinE1 IC50
Description: CDK2/Cyclin E1 Full length ADP-Glo Kinase Assay
as §1, with “of CDK2/Cyclin E1” for “of CDK1/Cyclin B1”, “assay. CDK2/Cyclin E1 full length” for “assay. CDK1/Cyclin B1”, “activity. CDK2/Cyclin E1” for “activity. CDK1/Cyclin B1”, “from Eurofins” for “from Carna”, “(Cat 14-475M).” for “(Cat 04-102).”

CDK4/Cyclin D1 = CDK4/Cyclin D1 (Homo sapiens (Human), UniProt P11802); experiment: CDK4/Cyclin D1 CHEF Assay (AQT0258 peptide); type: biochemical; conditions: 200 uM ATP, read-out: CDK4/ CyclinD1 AQT IC50
Excerpt: CDK4/Cyclin D1 CHEF Assay
The purpose of CDK4/Cyclin D1 assay is to evaluate the inhibition (% inhibition and IC50 values) of small molecule inhibitors by using a Chelation-Enhance Fluorescence (CHEF) assay. In a CHEF assay, phosphorylation of a peptide substrate results in proportional increase in fluorescence. CHEF kinase assay use peptide substrates containing a synthetic alpha-amino acid with a side chain bearing an 8-hydroxyquinoline derivative (sulfonamido-oxide, Sox). Upon phosphorylation of a nearby serine, threonine or tyrosine and in the presence of Mg(II), the spectral properties of the Sox residue are altered, emitting 485 nm wavelength light when excited with a 360 nm wavelength light source. CDK4/Cyclin D1 catalyzes the phosphoryl transfer to the SOX-labeled substrate peptide AQT0258 from Assayquant Technologies. […] The reaction was initiated with the addition of substrate solution, following a 30-minute pre-incubation of enzyme and inhibitor at 22° C. in the reaction mix. Reactions were allowed to proceed for 3 hrs at 22° C., followed by fluorescence read of the reaction. The IC50 determinations were made from a plot of the fractional velocity as a function of inhibitor concentration fit to the 4 parameters IC50 equation.

CDK6/Cyclin D3 = CDK6/Cyclin D3 (Homo sapiens (Human), UniProt Q00534); experiment: CDK6/Cyclin D3 ADP-Glo Kinase Assay; type: biochemical; conditions: 100 uM ATP, read-out: CDK6/ CyclinD3 IC50
Description: CDK6/Cyclin D3 ADP-Glo Kinase Assay
The purpose of the CDK6/Cyclin D3 assay is to evaluate the inhibition (% inhibition and IC50 values) in the presence of small molecule inhibitors by using a Luminescent based ADP-Glo assay. CDK6/Cyclin D3 catalyzes the production of ADP from ATP. ADP-Glo assay monitors ADP producing biochemical reactions. ADP-Glo is performed in 2 steps upon completion of kinase reaction: a combined termination of kinase reaction and depletion of remaining ATP in the first step, and conversion of generated ADP to […] and the newly produced ATP to light output using luciferase/luciferin reaction in the second step. The luminescent signal generated is proportional to the ADP concentration produced and is correlated with the kinase activity CDK6/Cyclin D3 was purchased from Carna. […] The assay was initiated with the addition of ATP-containing substrate solution, following a 30-minute pre-incubation of enzyme and inhibitor at room temperature in the reaction mixture. The reaction was stopped after 90 minutes at room temperature by the addition of 10 uL of ADP-GLO Reagent. After a 90-minute incubation, 20 uL of Kinase Detection Reagent was added. Samples were incubated for 40 minutes, after which plate well luminescence was measured on a Envision microplate reader. The IC50 determinations were made from a plot of the fractional velocity as a function of inhibitor concentration fit to the 4 parameters IC50 equation.

MCF-7 cells = experiment: Cell Growth Inhibition, MCF-7 (CellTiterGlo, 6 days); type: cell-based; conditions: Homo sapiens, MCF7, 144 h, MCF-7, 6-day treatment
Excerpt: (§2) MCF-7 and OVCAR-3 cells were used to evaluate the anti-proliferation activity of the CDK inhibitors. MCF-7 (ATCC, HTB-22) cells are epithelial cells from a patient with ER+ metastatic adenocarcinoma. OVCAR-3 (ATCC, HTB-161) cells were derived from malignant ascites of a patient with ovarian cancer and are known to have CCNE1 amplification. Both cell lines were maintained in RPMI media supplemented with 10% fetal bovine serum. For cell growth inhibition assay, CDK inhibitors in DMSO solution were dispensed with either Echo 655 (Beckman Coulter) or Tecan D300e (HP) into 384-well plates (Corning #3765) and the 384-well plates were UV-sterilized prior to the assay. The inhibitors were typically tested in the 10-10,000 nM concentration range with half-log serial dilutions. MCF-7 or OVCAR-3 (500 cells/30 μL/well) were added to each well using Multidrop Combi (ThermoFisher) using standard cassettes. The assay plates with cells were cultured at 37° C., 5% CO2 for 6 days. At the end of the 6-day treatment, 30 μL of CellTiterGlo 2.0 (Promega) was added to each well and the luminescent signal was read using CLARIOstar plus (BMG). The percentage of cell growth inhibition (% CGI) was calculated using the following formula 00 CGI=100-100×luminescencesampie/luminescencecontroi. The half maximal inhibitory concentration (IC50) was determined by nonlinear curve fitting (four parameters, variable slope).

OVCAR-3 cells = experiment: Cell Growth Inhibition, OVCAR-3 (CellTiterGlo, 6 days); type: cell-based; conditions: Homo sapiens, 144 h, OVCAR-3, 6-day treatment
Excerpt: as §2

Sequence of CDK4/Cyclin D1 (P11802 whole entry): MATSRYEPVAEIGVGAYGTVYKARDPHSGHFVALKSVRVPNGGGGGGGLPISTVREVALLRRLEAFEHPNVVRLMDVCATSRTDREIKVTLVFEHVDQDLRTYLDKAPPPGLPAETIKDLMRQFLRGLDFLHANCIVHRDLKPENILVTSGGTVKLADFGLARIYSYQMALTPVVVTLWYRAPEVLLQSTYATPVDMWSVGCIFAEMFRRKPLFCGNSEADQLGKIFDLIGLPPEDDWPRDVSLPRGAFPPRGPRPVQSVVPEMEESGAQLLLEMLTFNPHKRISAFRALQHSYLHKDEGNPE
Sequence of CDK4/Cyclin D1 (P24385 whole entry partner): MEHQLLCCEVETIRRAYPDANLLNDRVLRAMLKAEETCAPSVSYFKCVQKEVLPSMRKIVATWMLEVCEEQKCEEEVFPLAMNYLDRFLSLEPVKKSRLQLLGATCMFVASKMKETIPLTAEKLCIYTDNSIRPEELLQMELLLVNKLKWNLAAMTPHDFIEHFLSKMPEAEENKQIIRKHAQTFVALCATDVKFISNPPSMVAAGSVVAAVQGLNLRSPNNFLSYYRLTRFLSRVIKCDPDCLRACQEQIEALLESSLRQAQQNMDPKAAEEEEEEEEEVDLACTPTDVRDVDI
Sequence of CDK1/Cyclin B1 (P06493 whole entry): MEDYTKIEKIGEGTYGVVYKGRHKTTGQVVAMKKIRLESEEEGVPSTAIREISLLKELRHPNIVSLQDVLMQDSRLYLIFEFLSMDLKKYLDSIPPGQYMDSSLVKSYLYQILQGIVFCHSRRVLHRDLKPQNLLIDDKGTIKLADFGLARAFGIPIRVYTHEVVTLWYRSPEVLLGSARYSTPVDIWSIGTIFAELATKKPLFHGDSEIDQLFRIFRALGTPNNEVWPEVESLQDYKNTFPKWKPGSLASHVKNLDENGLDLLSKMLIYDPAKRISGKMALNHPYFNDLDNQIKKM
Sequence of CDK1/Cyclin B1 (P14635 whole entry partner): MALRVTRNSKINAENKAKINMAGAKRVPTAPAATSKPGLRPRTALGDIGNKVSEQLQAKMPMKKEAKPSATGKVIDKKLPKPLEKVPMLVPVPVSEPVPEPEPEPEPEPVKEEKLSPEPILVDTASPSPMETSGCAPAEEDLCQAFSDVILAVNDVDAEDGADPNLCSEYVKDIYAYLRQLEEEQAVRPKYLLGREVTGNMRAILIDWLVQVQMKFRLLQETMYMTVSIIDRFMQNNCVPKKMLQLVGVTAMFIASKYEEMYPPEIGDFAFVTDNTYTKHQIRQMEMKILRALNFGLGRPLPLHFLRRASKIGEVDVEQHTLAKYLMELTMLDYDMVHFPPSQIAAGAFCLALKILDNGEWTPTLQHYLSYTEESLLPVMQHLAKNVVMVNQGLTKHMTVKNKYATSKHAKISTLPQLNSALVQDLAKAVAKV
Sequence of CDK6/Cyclin D3 (Q00534 whole entry): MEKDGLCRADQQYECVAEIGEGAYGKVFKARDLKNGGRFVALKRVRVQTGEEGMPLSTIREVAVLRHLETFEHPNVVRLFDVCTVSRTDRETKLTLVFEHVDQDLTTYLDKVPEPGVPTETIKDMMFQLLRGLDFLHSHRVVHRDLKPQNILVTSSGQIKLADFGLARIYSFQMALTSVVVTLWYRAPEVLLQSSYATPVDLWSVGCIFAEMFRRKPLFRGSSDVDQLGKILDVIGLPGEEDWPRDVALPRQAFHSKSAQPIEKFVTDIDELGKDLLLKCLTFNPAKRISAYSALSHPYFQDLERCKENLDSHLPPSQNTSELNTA
Sequence of CDK6/Cyclin D3 (P30281 whole entry partner): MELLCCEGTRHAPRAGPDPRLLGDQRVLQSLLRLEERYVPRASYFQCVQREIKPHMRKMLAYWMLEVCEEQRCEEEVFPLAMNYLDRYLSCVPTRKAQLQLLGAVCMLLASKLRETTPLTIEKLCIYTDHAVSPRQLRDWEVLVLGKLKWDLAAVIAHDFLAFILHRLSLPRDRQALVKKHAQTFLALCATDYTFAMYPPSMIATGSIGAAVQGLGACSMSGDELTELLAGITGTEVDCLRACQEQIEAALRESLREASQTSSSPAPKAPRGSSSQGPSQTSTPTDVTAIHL

IC50 (CDK1/Cyclin B1) [nM]	IC50 (CDK2/Cyclin E1) [nM]	IC50 (CDK4/Cyclin D1) [nM]	IC50 (CDK6/Cyclin D3) [nM]	IC50 (MCF-7 cells) [nM]	IC50 (OVCAR-3 cells) [nM]	Structure (SMILES)
> 2000	200 to 500	200 to 500	200 to 500	> 2000	> 2000	Cc1cc2cnc(Nc3ccc(N4CC5(CN(C)C5)C4)cc3)nc2c(N2CC3(C2)CS(=O)(=O)C3)n1 [Compound 30, 6-(6-methyl-2-((4-(6-methyl-2,6-diazaspiro[3.3]heptan-2-yl)phenyl)amino)pyrido[3,4-d]pyrimidin-8-yl)-2-thia-6-azaspiro[3.3]heptane 2,2-dioxide]
> 2000	< 200	> 2000	> 2000	> 2000	> 2000	Cc1cc2cnc(Nc3cnn(C4CN(CC#N)C4)c3)nc2c(N2CC3(CN(C)C3)C2)n1 [Compound 31, 2-(3-(4-((6-methyl-8-(6-methyl-2,6-diazaspiro[3.3]heptan-2-yl)pyrido[3,4-d]pyrimidin-2-yl)amino)-1H-pyrazol-1-yl)azetidin-1-yl)acetonitrile]
500 to 2000	< 200	< 200	< 200	500 to 2000	500 to 2000	Cc1cc2cnc(NC3CCN(S(=O)(=O)C4CC4)CC3)nc2c(N2CC3(CNC3)C2)n1 [Compound 32, N-(1-(cyclopropylsulfonyl)piperidin-4-yl)-6-methyl-8-(2,6-diazaspiro[3.3]heptan-2-yl)pyrido[3,4-d]pyrimidin-2-amine]
500 to 2000	200 to 500	< 200	< 200	500 to 2000	500 to 2000	Cc1cc2cnc(Nc3cnn(C4CC5(C4)CN(C)C5)c3)nc2c(N2CCC3(C2)CC3(F)F)n1 (stereo not drawn) [Compound 33, 8-(1,1-difluoro-5-azaspiro[2.4]heptan-5-yl)-6-methyl-N-(1-(2-methyl-2-azaspiro[3.3]heptan-6-yl)-1H-pyrazol-4-yl)pyrido[3,4-d]pyrimidin-2-amine]
500 to 2000	< 200	< 200	< 200	500 to 2000	500 to 2000	Cc1cc2cnc(Nc3ccc(N4CC5(CN(C)C5)C4)cc3)nc2c(N2CCC3(C2)CC3(F)F)n1 (stereo not drawn) [Compound 34, 8-(1,1-difluoro-5-azaspiro[2.4]heptan-5-yl)-6-methyl-N-(4-(6-methyl-2,6-diazaspiro[3.3]heptan-2-yl)phenyl)pyrido[3,4-d]pyrimidin-2-amine]
> 2000	200 to 500	< 200	< 200	500 to 2000	500 to 2000	Cc1cc2cnc(Nc3ccc(N4CC5(CN(C)C5)C4)cc3)nc2c(N2CCC3(CCOCC3)C2)n1 [Compound 35, 6-methyl-N-(4-(6-methyl-2,6-diazaspiro[3.3]heptan-2-yl)phenyl)-8-(8-oxa-2-azaspiro[4.5]decan-2-yl)pyrido[3,4-d]pyrimidin-2-amine]
> 2000	200 to 500	200 to 500	500 to 2000	> 2000	> 2000	Cc1cc2cnc(Nc3cnn(CC4(N(C)C)CC4)c3)nc2c(N2CCC3(C2)CC3(F)F)n1 (stereo not drawn) [Compound 36, 8-(1,1-difluoro-5-azaspiro[2.4]heptan-5-yl)-N-(1-((1-(dimethylamino)cyclopropyl)methyl)-1H-pyrazol-4-yl)-6-methylpyrido[3,4-d]pyrimidin-2-amine]
> 2000	200 to 500	> 2000	> 2000	> 2000	> 2000	Cc1cc2cnc(Nc3cc4c(cc3F)CN(S(C)(=O)=O)C4)nc2c(N2CC3(CNC3)C2)n1 [Compound 37, N-(6-fluoro-2-(methylsulfonyl)isoindolin-5-yl)-6-methyl-8-(2,6-diazaspiro[3.3]heptan-2-yl)pyrido[3,4-d]pyrimidin-2-amine]
> 2000	< 200	500 to 2000	> 2000	> 2000	500 to 2000	Cc1cc2cnc(Nc3cnn(CC4(N(C)C)CC4)c3)nc2c(N2CCC(C#N)(C3CC3)C2)n1 (stereo not drawn) [Compound 38, 3-cyclopropyl-1-(2-((1-((1-(dimethylamino)cyclopropyl)methyl)-1H-pyrazol-4-yl)amino)-6-methylpyrido[3,4-d]pyrimidin-8-yl)pyrrolidine-3-carbonitrile]
> 2000	< 200	< 200	< 200	500 to 2000	500 to 2000	Cc1cc2cnc(N[C@H]3CC[C@H](CN(C)C)CC3)nc2c(N2CCC3(C2)CC3(F)F)n1 (stereo partly drawn) [Compound 40, 8-(1,1-difluoro-5-azaspiro[2.4]heptan-5-yl)-N-((1r,4r)-4-((dimethylamino)methyl)cyclohexyl)-6-methylpyrido[3,4-d]pyrimidin-2-amine]
